The test system of test [1] is A549 cells infected with R. delemar. Nature of the test: R. delemar-induced A549 cell damage (Pierce LDH assay). The note with it: for R. delemar-induced damage of A549 alveolar epithelial cells (LDH assay): pre-treated 1 h, inhibitors present throughout, Inh III 10, AG1478 10 μM, AG825 50 μM, 24 h infection (FIG. 6). In kind it is cell-based, human. How it is done:
Measurement of R. delemar-induced host cell damage. R. delemar-induced A549 cell damage was quantified using the Pierce LDH Assay with slight modifications to the manufacturer's protocol. Briefly, A549 cells were grown in 96-well tissue culture plates for 18-24 hours. […] For controls, host cells will be incubated with DMSO (the solvent used to reconstitute the inhibitor) or 25 μg/ml of mouse IgG antibody in parallel. After 24 hours of incubation at 37° C., 50 μl of the cell culture supernatant was collected from uninfected, infected, and fungi-only control wells and transferred to a 96 well plate to assay for LDH activity. Lysis buffer was added to all infected wells and incubated for 45 min at 37° C. After lysis, 50 μl of cell culture supernatant was transferred to a 96 well plate and used for the LDH Assay Kit per protocol. LDH release was calculated as follows: % Cytotoxicity=[Experimental release−Fungal Cells Spontaneous Control−Host Cells Spontaneous Control]/[Host Cell Maximum Control−Fungal Cells Maximum Control−Host Cells Spontaneous Control]×100. LDH is a cytosolic enzyme but will be released into the cell culture medium upon cell membrane damage. The amount of extracellular LDH is proportional to the amount of cell damage.
(§1) R. delemar-induced A549 cell damage was quantified using the Pierce LDH assay, with slight modifications to the manufacturer's protocol. Briefly, A549 cells were grown in 96-well tissue culture plates for 18 to 24 h. Cells were then pretreated for 1 h with inhibitor and infected with 1×10^6-2×10^6 germlings suspended in 150 μl F-12K plus 10% FBS. For controls, host cells were incubated with the appropriate amount of diluent used to reconstitute the in parallel. After 24 h of incubation at 37° C., 50 μl of the cell culture supernatant was collected from uninfected, infected, and fungus-only control wells and transferred to a 96-well plate to assay for LDH activity. Lysis buffer was added to all infected wells, and the mixture was incubated for 45 min at 37° C. After lysis, 50 μl of cell culture supernatant was transferred to a 96-well plate and used for the LDH assay kit per the protocol. LDH release was calculated as follows: % cytotoxicity=[(experimental release−fungal cell spontaneous control−host cell spontaneous control)/(host cell maximum control−fungal cell maximum control−host cell spontaneous control)]×100. LDH is a cytosolic enzyme but will be released into the cell culture medium upon cell membrane damage. The amount of extracellular LDH is proportional to the amount of cell damage.

The subject of test [2] is HUVECs infected with R. delemar. The conditions noted are these: inhibition of PDGFR phosphorylation; cited from earlier work.
The subject of the next test is R. delemar. Put plainly: Neutropenic mouse model of pulmonary mucormycosis, survival. The test is classed as in vivo, mice. The procedure:
Murine models of Mucormycosis. Male ICR mice (20-25 g from Envigo) were immunosuppresed by cyclophosphamide (200 mg/kg administered intraperotenually [i.p]) and cortisone acetate (500 mg/kg, adminstered subcutaneously) given on days −2, +3, and +9 relative to infection. […] To control for bacterial infection, immunosuppressed mice received 50 mg/L Baytrial (enrofloxacin: Bayer, Leverkusen, Germany) ad libitum on Day −3 thorough Day 0, after which Baytril was replaced with daily ceftazidime (5 mg/mouse) treatment adminstered subcutaneously through day+13 days post infection. Mice were infected with 2.5×10^5 spores of R. delemar 99-880 in 25 μL PBS given intratracheally as previously described (Luo G, Gebremariam T, Lee H, French S W, Wiederhold N P, Patterson T F, Filler S G, Ibrahim A S. 2013. Efficacy of liposomal amphotericin B and posaconazole in intratracheal models of murine mucormycosis. Antimicrobial agents and chemotherapy 57:3340-7). […] Placebo mice received DMA:PEG300. Survival of mice served as the primary endpoint with moribund mice humanely euthanized. To determine effect of treatment on tissue fungal burden mice were immunosuppressed and infected as above. Gefitinib treatment started 4 post infection and continued through Day +3. On Day +4, mice were sacrificed and lungs and brains, representing primary and secondary target organs (Luo G, Gebremariam T, Lee H, French S W, Wiederhold N P, Patterson T F, Filler S G, Ibrahim A S. 2013. Efficacy of liposomal amphotericin B and posaconazole in intratracheal models of murine mucormycosis. Antimicrobial agents and chemotherapy 57:3340-7), were collected and processed for tissue fungal burden by qPCR (Ibrahim A S, Bowman J C, Avanessian V, Brown K, Spellberg B, Edwards J E, Jr., Douglas C M. 2005. Caspofungin inhibits Rhizopus oryzae 1,3-beta-D-glucan synthase, lowers burden in brain measured by quantitative PCR, and improves survival at a low but not a high dose during murine disseminated zygomycosis. Antimicrobial agents and chemotherapy 49:721-7.) Values are expressed as Log10 spore equivalents per gram tissue.
Statistical Analyses. In vitro experiments were performed in triplicate on two or three separate days. Data were expressed as median±interquartile range. Treatment groups were compared to controls using the Wilcoxon rank-sum test and P values <0.05 were considered significant. For the murine studies, survival of mice was analyzed using the Log Rank test, whereas differences in tissue fungal burden were analyzed by the Wilcoxon Rank Sum test using Graph pad Prism 6. P values of <0.05 were considered significant.

For test [3], the system named is A549 alveolar epithelial cells infected with R. delemar spores. Nature of the test: Measurement of host cell endocytosis of R. delemar by A549 cells (Uvitex differential fluorescence). In kind it is cell-based, human. The note with it: for ability of A549 cells to endocytose R. delemar spores: Ahr inhibitor or Src inhibitor. The procedure: Measurement of host cell endocytosis. 12-mm glass coverslips were seeded with A549 alveolar epithelial cells. […] For controls, host cells will be incubated with DMSO (the solvent used to reconstitute the inhibitor) or 25 μg/ml mouse IgG antibody in parallel. Host cells were then infected with 2×10^5 R. delemar spores. After incubation for 3 h, cells were fixed in 3% paraformaldehyde and stained for 1 h with 1% Uvitex, which specifically binds to chitin in the fungal cell wall. After washing with PBS, coverslips were mounted on a glass slide with a drop of ProLong Gold anti-fade reagent (Molecular Probes) and sealed. The total number of cell-associated organisms (i.e. fungi adhering to the monolayer) per high-powered field were determined by phase-contrast microscopy. The same field will be examined by epifluorescence microscopy, and the number of brightly fluorescent, uninternalized fungi were determined. The number of endocytosed organisms was calculated by subtracting the number of fluorescent fungi from the total number of visible fungi. At least 400 organisms were counted per treatment group in at least 15 different fields per coverslip. Experiments were performed in duplicate or triplicate on at least two separate days.
12-mm glass coverslips in 12 well dishes will be seeded with A549 alveolar epithelial cells. Cells were then pre-treated 1 h with inhibitors. For controls, host cells were incubated with the appropriate amount of diluent used to reconstitute the inhibitor in parallel. Host cells were then infected with 2×10^6 Rdelemar. After incubation for 3 h, cells were fixed in 3% paraformaldehyde and stained for 1 h with 1% Uvitex, which specifically binds to chitin in the fungal cell wall. After washing with PBS, coverslips were mounted on a glass slide with a drop of ProLong Gold anti-fade reagent (Molecular Probes) and sealed. The total number of cell-associated organisms (i.e., fungi adhering to the monolayer) per high-powered field was determined by phase-contrast microscopy. The same exact field was examined by epifluorescence microscopy, and the number of brightly fluorescent, uninternalized fungi will be determined. The number of endocytosed organisms is calculated by subtracting the number of fluorescent organisms from the total number of visible organisms. At least 400 organisms were counted in at least 15 different fields per coverslip. Experiments were performed in duplicate on separate days. Data will be expressed as median f interquartile range.

Test [4] deals with A549 cells infected with R. oryzae. Nature of the test: R. oryzae-induced damage of A549 cells (LDH assay). In kind it is cell-based, human. The conditions noted are these: 25 μM Mifepristone overnight and/or 25 μM Gefitinib 1 h, 24 h infection (FIG. 14). The procedure:
as §1, with “Cells were then pretreated for 1 h with inhibitor and infected with 1×10^6-2×10^6 germlings suspended in 150 μl F-12K plus 10% FBS.” left out

The test system of test [5] is A549 cells infected with M. circinelloides. Put plainly: M. circinelloides-induced damage of A549 cells (LDH assay). The test is classed as cell-based, human. The conditions noted are these: 25 μM Mifepristone overnight and/or 25 μM Gefitinib 1 h, 24 h infection (FIG. 14).
The test system of test [6] is A549 cells infected with L. corymbifera. Nature of the test: L. corymbifera-induced damage of A549 cells (LDH assay). The note with it: 25 μM Mifepristone overnight and/or 25 μM Gefitinib 1 h, 24 h infection (FIG. 14). The test is classed as cell-based, human.
In test [7] the test system is A549 cells infected with C. bertholletiae. Put plainly: C. bertholletiae-induced damage of A549 cells (LDH assay). In kind it is cell-based, human. The note with it: 25 μM Mifepristone overnight and/or 25 μM Gefitinib 1 h, 24 h infection (FIG. 14).

The values below come from patent publication US20210284742A1, “METHODS OF TREATING OR PREVENTING MUCORMYCOSIS” (University of Maryland, Baltimore, priority 2018, published 2021).

On to `COc1cc2ncnc(N3CCN(C(=O)Nc4ccc(Oc5ccccc5)cc4)CC3)c2cc1OC` [PDGFR tyrosine kinase inhibitor III], for which the “R. delemar-induced damage of A549 alveolar epithelial cells (LDH assay)” value in test [1] is “modestly but significantly reduces”. Moreover, the “R. delemar-induced damage of HUVECs” value in test [2] was “significantly reduces”.
Regarding `CC[C@@H]([C@H](C)O)n1ncn(-c2ccc(N3CCN(c4ccc(OC[C@@H]5CO[C@@](Cn6cncn6)(c6ccc(F)cc6F)C5)cc4)CC3)cc2)c1=O` [posaconazole], in the test with R. delemar (delayed treatment beginning 30 h post infection for 6 consecutive days, 10 mg/kg gefitinib, 20 mg/kg posaconazole or both), the 18-day survival is 0%. In the test with R. delemar (treatment delayed for 30 h post infection, administered alone), the “protection from pulmonary mucormycosis, delayed administration” value was “did not”.
For the compound `Cc1ccccc1N=Nc1ccc(NC(=O)c2ccnn2C)c(C)c1` [CH-223191], the “ability of A549 cells to endocytose R. delemar spores” value in test [3] was “Neither of the inhibitors altered”.
With “EGF [epidermal growth factor, EGFR ligand]”, in test [1] (A549 cells pretreated (and cotreated) with EGF 1 h prior to 24 h infection (FIG. 15)), the “R. delemar-induced damage with EGF addition (LDH assay)” value is “no increase in damage was observed”.
Turning to `COc1cc(/C=C(\C#N)C(N)=O)cc(CSc2nc3ccccc3s2)c1O` [AG825], the “R. delemar-induced damage of A549 alveolar epithelial cells (LDH assay)” value in test [1] was “greater reduction in damage”.
For the compound `CC#C[C@]1(O)CC[C@H]2[C@@H]3CCC4=CC(=O)CCC4=C3[C@@H](c3ccc(N(C)C)cc3)C[C@@]21C` [Mifepristone], the “R. delemar invasion / endocytosis” value in test [3] (Example 3, 25 μM Mifepristone overnight and/or 25 μM Gefitinib 1 h, 3 h infection (FIG. 13)) is listed as “reduction”. Also, the “R. delemar-induced damage of alveolar epithelial cells (LDH assay)” value in test [1] (Example 3, Mifepristone 25 / Gefitinib 25, 24 h infection, vs vehicle (FIG. 12)) is recorded as “decrease”. Moreover, in test [4], the R. oryzae-induced damage result is listed as “a significant decrease in damage was not seen”. In addition, the M. circinelloides-induced damage result in test [5] is on record as “a significant decrease in damage was not seen”. Besides, the L. corymbifera-induced damage result in test [6] was “significantly decreased”. In addition, the C. bertholletiae-induced damage entry in test [7] is “a significant decrease in damage was not seen”.
Turning to Src Kinase Inhibitor I I, the “ability of A549 cells to endocytose R. delemar spores” value in test [3] is “Neither of the inhibitors altered”.
Take `COc1cc2ncnc(Nc3cccc(Cl)c3)c2cc1OC` [AG1478]: the “R. delemar-induced damage of A549 alveolar epithelial cells (LDH assay)” value in test [1] is “greater reduction in damage”.
